Molecules are shown by their SMILES.

The values below come from patent publication US12612379B2, “Inhibitors of APOL1 and methods of using same” (Vertex Pharmaceuticals Incorporated, priority 2021, dated 2026).

This experiment concerns the target T1, APOL1 (tet-inducible transgenic APOL1 T-REx-HEK293 cell lines) (Homo sapiens, UniProt O14791).
T1 sequence (O14791 1-398 S342G/I384M): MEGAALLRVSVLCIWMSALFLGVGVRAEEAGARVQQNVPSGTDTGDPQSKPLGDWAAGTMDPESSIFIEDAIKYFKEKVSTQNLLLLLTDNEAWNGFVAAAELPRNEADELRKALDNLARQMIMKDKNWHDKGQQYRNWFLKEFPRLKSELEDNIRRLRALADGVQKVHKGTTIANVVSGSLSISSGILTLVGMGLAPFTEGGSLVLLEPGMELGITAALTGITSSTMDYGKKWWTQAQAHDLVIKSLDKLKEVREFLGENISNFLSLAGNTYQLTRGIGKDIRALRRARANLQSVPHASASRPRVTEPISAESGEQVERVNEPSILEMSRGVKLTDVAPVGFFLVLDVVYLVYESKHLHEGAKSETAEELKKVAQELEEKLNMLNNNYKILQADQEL
Kind of experiment: MultiTox-Fluor Multiplex Cytotoxicity Assay for APOL1 inhibitor properties. The conditions noted are these: APOL1 induced with 50 ng/mL tet, 24 hours with compound, ratio of dead to live cells, top concentration 10 μM; APOL1 variant (G0/G1/G2) not stated; read-out: IP50 (nM) (i.e., IC50 for cell proliferation). It counts as cell-based. Here is the method:
The MultiTox-Fluor Multiplex Cytotoxicity Assay is a single-reagent-addition, homogeneous, fluorescence assay that measures the number of live and dead cells simultaneously in culture wells. The assay measures cell viability and cytotoxicity by detecting two distinct protease activities. The live-cell protease activity is restricted to intact viable cells and is measured using a fluorogenic, cell-permeant peptide glycyl-phenylalanylamino fluorocoumarin (GF-AFC) substrate. The substrate enters intact cells, where it is cleaved to generate a fluorescent signal proportional to the number of living cells. […] A second, cell-impermeant, fluorogenic peptide substrate (bis-AAF-R110 Substrate) is used to measure dead-cell protease that has been released from cells that have lost membrane integrity. A ratio of dead to live cells is used to normalize data.
Briefly, the tet-inducible transgenic APOL1 T-REx-HEK293 cell lines were incubated with 50 ng/mL tet to induce APOL1 in the presence of 3-(2-(4-fluorophenyl)-1H-indol-3-yl)-N-((3S,4R)-4-hydroxy-2-oxopyrrolidin-3-yl)propenamide at 10.03, 3.24, 1.13, 0.356, 0.129, 0.042, 0.129, 0.0045, 0.0015, 0.0005 μM in duplicate for 24 hours in a humidified 37° C. incubator. The MultiTox reagent was added to each well and placed back in the incubator for an additional 30 minutes. The plate was read on the EnVision plate reader. A ratio of dead to live cells was used to normalize, and data was imported, analyzed, and fit using Genedata Screener (Basel, Switzerland) software. Data was normalized using percent of control, no tet (100% viability), and 50 ng/mL tet treated (0% viability), and fit using Smart Fit. The reagents, methods, and complete protocol for the MultiTox assay are described below.
Human embryonic kidney (HEK293) cell lines containing a tet-inducible expression system (T-REx™; Invitrogen, Carlsbad, CA) and Adeno-associated virus site 1 pAAVS1-Puro-APOL1 G0 or pAAVS1-Puro-APOL1 G1 or pAAVS1-Puro-APOL1 G2 Clones G0 DC2.13, G1 DC3.25, and G2 DC4.44 were grown in a T-225 flask at ˜90% confluency in cell growth media (DMEM, 10% Tet-free FBS, 2 mM L-glutamine, 100 Units/mL penicillin-streptomycin, 5 μg/mL blasticidin S HCl, 1 μg/mL puromycin dihydrochloride). Cells were washed with DPBS and then trypsinized to dissociate from the flask. Media was used to quench the trypsin, cells were then pelleted at 200 g and resuspended in fresh cell assay media (DMEM, 2% Tet-free FBS, 2 mM L-glutamine, 100 Units/mL penicillin-streptomycin). Cells were counted and diluted to 1.17×10^6 cells/mL. 20 μL of cells (23,400/well) were dispensed in every well of a 384-well Poly-D-Lysine coated plate using the Multidrop dispenser. The plates were then incubated at room temperature for one hour.
Tetracycline is needed to induce APOL1 expression. 1 mg/mL tet stock in water was diluted to 250 ng/mL (5×) in cell assay media. 60 μL of cell assay media (no tet control) was dispensed in columns 1 and 24, and 60 μL of 5×tet in 384-PP-round bottom plate was dispensed in columns 2 to 23 with the Multidrop dispenser.
Assay ready plates from the Global Compound Archive were ordered using template 384_APOL1Cell_DR10n2_50 uM_v3. Compounds were dispensed at 200 nL in DMSO. The final top concentration was 10 μM with a 10 point 3-fold dilution in duplicate in the MultiTox assay.
20 μL was transferred from the 5×tet plate to the ARP and mixed, then 5 μL of 5×tet and the compounds were transferred to the cell plate and mixed using the Bravo. The cell plate was placed in the humidified 37° C. 5% CO2 incubator for 24 hours.
The MultiTox-Fluor Multiplex Cytotoxicity Assay was performed in accordance with the manufacturer's protocol. After cells were incubated with tet and compound for 24 hours, 25 μL of 1×MultiTox reagent was added to each well using the Multidrop dispenser; the plates were placed on a plate shaker (600 rpm) for 2 minutes, then centrifuged briefly and placed back in the 37° C. incubator for 30 minutes. […]
For `C[C@H]1C[C@@](O)(c2cccc(Cl)c2)C[C@@H](c2cn(C)nn2)N1` [Compound 3], the IC50 is 50 to 500 nM.

With `C[C@H]1C[C@@](O)(c2ccc3c(c2)OC(F)(F)C3(F)F)C[C@@H](c2cn(C)nn2)N1` [Compound 40], the IC50 is no more than 50 nM.

Take `CC1CC(O)(c2ccc(C(F)(F)F)cc2)CC(c2c[nH]nn2)N1` (centres unmarked) [Compound 62, 2-methyl-6-(1H-triazol-4-yl)-4-[4-(trifluoromethyl)phenyl]piperidin-4-ol]: the IC50 is no more than 50 nM.

On to `C[C@H]1C[C@@](O)(c2ccc(Cl)nc2)C[C@@H](c2cn(C)nn2)N1` [Compound 17], for which the IC50 lay within 50 to 500 nM.

For `C[C@H]1C[C@@](C(N)=O)(c2ccc(C(F)(F)F)cc2)C[C@@H](c2cn(C)nn2)N1` [Compound 67, (2S,4S,6S)-2-methyl-6-(1-methyl-1H-1,2,3-triazol-4-yl)-4-(4-(trifluoromethyl)phenyl)piperidine-4-carboxamide], the IC50 lay in the range of 50 to 500 nM.

Regarding `C[C@H]1C[C@@](O)(c2ccc3c(cnn3C)c2)C[C@@H](c2cn(C)nn2)N1` [Compound 56], the IC50 is no less than 500 nM.

For `C[C@H]1C[C@@](O)(c2ccc(C(C)(F)F)cc2)C[C@@H](c2cn(C)nn2)N1` [Compound 39], the IC50 is no more than 50 nM.

For `C[C@H]1C[C@@](C#N)(c2ccc(Cl)cn2)C[C@@H](c2cn(C)nn2)N1` [Compound 63, (2S,4S,6S)-4-(5-chloropyridin-2-yl)-2-methyl-6-(1-methyl-1H-1,2,3-triazol-4-yl)piperidine-4-carbonitrile], the IC50 was no less than 500 nM.

`C[C@H]1C[C@@](CO)(c2ccc(C(F)(F)F)cc2)C[C@@H](c2cn(C)nn2)N1` [Compound 65, ((2S,4S,6S)-2-methyl-6-(1-methyl-1H-1,2,3-triazol-4-yl)-4-(4-(trifluoromethyl)phenyl)piperidin-4-yl)methanol]: the IC50 lay in the range of 50 to 500 nM.

Take `C[C@H]1C[C@@](O)(c2ccc3c(c2)CCC3(F)F)C[C@@H](c2cn(C)nn2)N1` [Compound 41]: the IC50 is less than 10000 nM.

`Cc1cc([C@@]2(O)C[C@@H](c3cn(C)nn3)N[C@@H](C)C2)ccc1Cl` [Compound 26]: the IC50 is no more than 50 nM.

Turning to `C[C@H]1C[C@@](O)(c2ccc3c(c2)nnn3C)C[C@@H](c2cn(C)nn2)N1` [Compound 55], the IC50 is no less than 500 nM.

`COc1cc([C@]2(O)C[C@H](C)N(C)[C@H](c3cn(C)nn3)C2)ccc1C(F)(F)F` [Compound 42]: the IC50 lay in the range of 50 to 500 nM.

Turning to `C[C@H]1C[C@@](O)(c2ccc(C(F)F)cc2)C[C@@H](c2cn(C)nn2)N1` [Compound 38], the IC50 was no more than 50 nM.

Take `C[C@H]1C[C@@](O)(c2cc(F)cc(Cl)c2)C[C@@H](c2cn(C)nn2)N1` [Compound 10]: the IC50 is 50 to 500 nM.

`C[C@H]1C[C@@](O)(c2ccc(C(F)(F)F)c(OC(F)(F)F)c2)C[C@@H](c2cn(C)nn2)N1` [Compound 50]: the IC50 is no more than 50 nM.

In the case of `C[C@H]1C[C@@](O)(c2ccc(Cl)c(C(F)(F)F)c2)C[C@@H](c2cn(C)nn2)N1` [Compound 33], the IC50 is no more than 50 nM.

For the compound `C[C@H]1C[C@@H](c2ccc(C(F)(F)F)cc2)C[C@@H](c2cn(C)nn2)N1` [Compound 66, (2S,4R,6S)-2-methyl-6-(1-methyltriazol-4-yl)-4-[4-(trifluoromethyl)phenyl]piperidine], the IC50 fell in the range of 50 to 500 nM.

In the case of `C[C@@H]1C[C@](O)(c2cccc(Cl)c2)C[C@H](C)N1` [Compound 1], the IC50 was no less than 500 nM.

For the compound `C[C@H]1C[C@@](O)(c2ccc(C(F)(F)C(F)(F)F)cc2)C[C@@H](c2cn(C)nn2)N1` [Compound 47], the IC50 was no more than 50 nM.

In the case of `C[C@H]1C[C@@](O)(c2ccc3cnn(C)c3c2)C[C@@H](c2cn(C)nn2)N1` [Compound 58], the IC50 was no more than 50 nM.

In the case of `C[C@H]1C[C@@](O)(c2ccc(Cl)cn2)C[C@@H](c2cn(C)nn2)N1` [Compound 18], the IC50 is 50 to 500 nM.

As to `C[C@H]1C[C@@](O)(c2ccc(C(F)(F)F)c(F)c2)C[C@@H](c2cn(C)nn2)N1` [Compound 25], the IC50 was no more than 50 nM.
